Measured values published in ChEMBL document CHEMBL3867490, “Chalcone-benzoxaborole hybrids as novel anticancer agents” (Bioorg Med Chem Lett, 2016).

Experiments:
[1] = Cytotoxicity against human HCT116 cells assessed as reduction in cell viability after 48 hrs by MTT assay; type: functional, cell-based; settings: HCT-116, 48 h
[2] = Cytotoxicity against human MCF10A cells assessed as reduction in cell viability after 48 hrs by MTT assay; type: toxicity, cell-based, MCF-10A
[3] = Cytotoxicity against human WI38 cells assessed as reduction in cell viability after 48 hrs by MTT assay; type: toxicity, cell-based, WI-38
[4] = Cytotoxicity against human MDA-MB-231 cells assessed as reduction in cell viability after 48 hrs by MTT assay; type: functional, cell-based; settings: MDA-MB-231, 48 h
[5] = Cytotoxicity against human SKOV3 cells assessed as reduction in cell viability after 48 hrs by MTT assay; type: functional, cell-based; settings: SK-OV-3, 48 h

| SMILES | IC50 [1] [µM] | IC50 at 48 h [2] [µM] | IC50 at 48 h [3] [µM] | IC50 [4] [µM] | IC50 [5] [µM] |
| --- | --- | --- | --- | --- | --- |
| COc1cccc(C(=O)/C=C/c2ccc3c(c2)B(O)OC3)c1 | 5 | 7.4 | 14.6 | 2.1 | 2.6 |
| O=C(/C=C/c1ccc2c(c1)B(O)OC2)c1cccc(F)c1 | 6.7 | 15.8 | 26.7 | 3 | 4.8 |
| COCOc1cccc(C(=O)/C=C/c2ccc3c(c2)B(O)OC3)c1 | 13.3 | 48.1 | 33.2 | 4.5 | 11.7 |
| O=C(/C=C/c1ccc2c(c1)B(O)OC2)c1ccccc1O | 77.9 | 53.7 | > 100 | 16.9 | 48.8 |
| O=C(/C=C/c1ccc2c(c1)B(O)OC2)c1ccc(-c2ccccc2)cc1 | 9.5 | 20.7 | 18.3 | 6.4 | 4.9 |
| O=C(/C=C/c1ccc2c(c1)B(O)OC2)c1cccc2ccccc12 | 5 | 13.4 | 18.8 | 3.6 | 2.7 |
| Cc1cccc(C(=O)/C=C/c2ccc3c(c2)B(O)OC3)c1 | 6.7 | 15.9 | 16.7 | 4.5 | 2.9 |
| O=C(/C=C/c1ccc2c(c1)B(O)OC2)c1ccc(Br)cc1 | 9.9 | 27.8 | 36.7 | 9.5 | 4.5 |
| O=C(O)c1ccc(C(=O)/C=C/c2ccc3c(c2)B(O)OC3)cc1 | > 100 | > 100 | > 100 | > 100 | > 100 |
| COc1ccc(C(=O)/C=C/c2ccc3c(c2)B(O)OC3)c(OC)c1 | 16.2 | 12.2 | 86.3 | 11.2 | 6.1 |
| COc1ccc(C(=O)/C=C/c2ccc3c(c2)B(O)OC3)cc1OC | 12.2 | 13.5 | 33.5 | 13.2 | 4.8 |
| O=C(/C=C/c1ccc2c(c1)B(O)OC2)c1cccs1 | 14.2 | 13.8 | 26 | 4.6 | 10.4 |
| Nc1ccc(C(=O)/C=C/c2ccc3c(c2)B(O)OC3)cc1 | 26.1 | 19.9 | 25.4 | 25.8 | 20.2 |
| Nc1cccc(C(=O)/C=C/c2ccc3c(c2)B(O)OC3)c1 | 4.5 | 19.6 | 25.3 | 3.2 | 7.4 |
| O=C(/C=C/c1ccc2c(c1)B(O)OC2)c1ccco1 | 24.1 | 7.4 | 59 | 7.3 | 20.7 |
| CSc1ccc(C(=O)/C=C/c2ccc3c(c2)B(O)OC3)cc1 | 10.3 | 7.4 | 54.3 | 9.8 | 4.1 |
| COc1cc(C(=O)/C=C/c2ccc3c(c2)B(O)OC3)cc(OC)c1OC | 7.9 | 48.5 | 18.5 | 10.6 | 5.7 |
| COc1cc(C(=O)/C=C/c2ccc3c(c2)B(O)OC3)ccc1N | 27.9 | 17.6 | > 100 | 24.3 | 1.7 |
| Cc1ccc(C(=O)/C=C/c2ccc3c(c2)B(O)OC3)cc1C | 6.1 | 4.7 | 22 | 5.3 | 1.9 |

| SMILES | IC50 [1] [µM] | IC50 at 48 h [2] [µM] | IC50 at 48 h [3] [µM] | IC50 [4] [µM] | IC50 [5] [µM] |
| --- | --- | --- | --- | --- | --- |
| O=C(/C=C/c1ccc2c(c1)B(O)OC2)c1cccnc1 | 20.5 | 34.4 | 76.2 | 11.4 | 18.5 |
| Cn1cccc1C(=O)/C=C/c1ccc2c(c1)B(O)OC2 | > 100 | > 100 | > 100 | > 100 | 93.6 |
| O=C(/C=C/c1ccc2c(c1)B(O)OC2)c1ccccc1F | 4.2 | 25.4 | 23.6 | 2.2 | 3.7 |
| O=C(/C=C/c1ccc2c(c1)B(O)OC2)c1cccc(O)c1 | 6.5 | 25.3 | 26.4 | 2.7 | 3.8 |
| O=C(/C=C/c1ccc2c(c1)B(O)OC2)c1ccc([N+](=O)[O-])cc1 | 9.1 | 17.5 | 39.3 | 11.2 | 7.9 |
| O=C(/C=C/c1ccc2c(c1)B(O)OC2)c1ccc(C(F)(F)F)cc1 | 6.3 | 22.3 | 22.6 | 9.2 | 3.7 |
| COCOc1ccccc1C(=O)/C=C/c1ccc2c(c1)B(O)OC2 | 10.2 | 11.7 | 27 | 10.2 | 6.5 |
| CCc1ccc(C(=O)/C=C/c2ccc3c(c2)B(O)OC3)cc1 | 10.9 | 8.8 | 20.6 | 9.8 | 4.4 |
| O=C(/C=C/c1ccc2c(c1)B(O)OC2)c1ccc(Cl)cc1 | 9.3 | 12.1 | 24.7 | 7.9 | 3.7 |
| Cc1ccc(C(=O)/C=C/c2ccc3c(c2)B(O)OC3)cc1 | 10.5 | 8.3 | 22.2 | 6.5 | 3.7 |
| O=C(/C=C/c1ccc2c(c1)B(O)OC2)c1ccc(O)c(O)c1 | > 100 | > 100 | > 100 | 67.6 | > 100 |
| O=C(/C=C/c1ccc2c(c1)B(O)OC2)c1ccc2c(c1)OCCO2 | 10.3 | 11.7 | 30.2 | 7.9 | 7.3 |
| COc1cccc2c1C(=O)c1c(O)c3c(c(O)c1C2=O)C[C@@](O)(C(=O)CO)C[C@@H]3O[C@H]1C[C@H](N)[C@H](O)[C@H](C)O1 [DOXORUBICIN] | 0.31 | 0.06 | 9 | – | 0.42 |
| O=C(/C=C/c1ccc2c(c1)B(O)OC2)c1ccc(O)cc1 | 24.1 | 24.8 | > 100 | 25.6 | 13 |
| CCOC(=O)c1ccc(C(=O)/C=C/c2ccc3c(c2)B(O)OC3)cc1 | 7.6 | 12.9 | 47.2 | 13 | 7.1 |
| COc1ccccc1C(=O)/C=C/c1ccc2c(c1)B(O)OC2 | 5 | 9.1 | 21.7 | 3.1 | 2.6 |
| O=C(/C=C/c1ccc2c(c1)B(O)OC2)c1ccc(Cl)c(Cl)c1 | 3.2 | 14.9 | 12.5 | 3.4 | 1.8 |
| O=C(/C=C/c1ccc2c(c1)B(O)OC2)c1ccc(F)cc1 | 2.8 | 11.8 | 7.6 | 1.6 | 1.4 |
| O=C(/C=C/c1ccc2c(c1)B(O)OC2)c1ccc(OCc2ccccc2)cc1 | 12.1 | 23.3 | > 100 | 5.3 | 6 |
